Measured values reported in ChEMBL document CHEMBL1201862, “PubChem BioAssay data set” (2004).
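Protocol summary: plate cells (96-well), add compound at 5 concentrations, incubate 48 h, interpolate endpoints linearly. At the GI50, growth is halved.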 Activity calls are given as the source filed them. Rule as the data show it: active = GI50 up to about 1.1 µM and inactive = higher.

How the values were obtained:
Experiment in all cases: DTP human tumour cell line panel, 48 h
[1] = system: SK-MEL-28
[2] = system: LOX IMVI
[3] = system: SK-MEL-5
[4] = system: OVCAR-5
[5] = system: IGROV-1
[6] = system: HL-60
[7] = system: CCRF-CEM
[8] = system: SR
[9] = system: HOP-92
[10] = system: SNB-19
[11] = system: RPMI-8226
[12] = system: OVCAR-4
[13] = system: TK-10
[14] = system: DU-145
[15] = system: MDA-MB-231
[16] = system: U-251
[17] = system: UO-31
[18] = system: SN12C
[19] = system: HT-29
[20] = system: CAKI-1
[21] = system: SF-539
[22] = system: HCT-116
[23] = system: MOLT-4
[24] = system: SF-268
[25] = system: MCF7
[26] = system: SF-295
[27] = system: MDA-MB-435
[28] = system: EKVX
[29] = system: COLO 205
[30] = system: BT-549
[31] = system: OVCAR-3
[32] = system: OVCAR-8
[33] = system: PC-3
[34] = system: HCT-15
[35] = system: RXF 393
[36] = system: K562
[37] = system: NCI-H226
[38] = system: MDA-N
[39] = system: SNB-75
[40] = system: HOP-62
[41] = system: UACC-62
[42] = system: SK-MEL-2
[43] = system: SK-OV-3
[44] = system: A498
[45] = system: M14
[46] = system: KM12
[47] = system: UACC-257
[48] = system: T47D
[49] = system: Malme-3M
[50] = system: NCI/ADR-RES
[51] = system: ACHN
[52] = system: NCI-H522
[53] = system: HCC 2998
[54] = system: SW-620
[55] = system: Hs-578T
[56] = system: NCI-H23
[57] = system: A549
[58] = system: 786-0
[59] = system: NCI-H460

With `O=P1(C(O)/C=C/c2ccccc2)N(Cc2ccccc2)[C@H](c2ccccc2)[C@@H](c2ccccc2)N1Cc1ccccc1` (stereo partly drawn) the GI50 [1] was 35.2 µM (inactive), the GI50 [2] was 17.5 µM (inactive) and the GI50 [3] was 14.7 µM (inactive). For the same molecule, the GI50 [4] was 21.8 µM (inactive), the GI50 [5] was 2.24 µM (inactive) and the GI50 [6] was 6.87 µM (inactive). For the same molecule, the GI50 [7] was 10.5 µM (inactive), the GI50 [8] was 4.75 µM (inactive) and the GI50 [9] was 11 µM (inactive). For the same molecule, the GI50 [10] was 24.3 µM (inactive), the GI50 [11] was 3.63 µM (inactive) and the GI50 [12] was 13 µM (inactive). For the same molecule, the GI50 [13] was 26 µM (inactive), the GI50 [14] was 38.5 µM (inactive) and the GI50 [15] was 17.3 µM (inactive). For the same molecule, the GI50 [16] was 19.9 µM (inactive), the GI50 [17] was 12.5 µM (inactive) and the GI50 [18] was 13.6 µM (inactive). The GI50 [19] was 14.2 µM (inactive), the GI50 [20] was 17.1 µM (inactive) and the GI50 [21] was > 51.3 µM (inactive). The GI50 [22] was 8.15 µM (inactive), the GI50 [23] was 2.61 µM (inactive) and the GI50 [24] was 23.8 µM (inactive). For the same molecule, the GI50 [25] was 12 µM (inactive), the GI50 [26] was 14 µM (inactive) and the GI50 [27] was 19.3 µM (inactive). The GI50 [28] was 11.7 µM (inactive), the GI50 [29] was 11.9 µM (inactive) and the GI50 [30] was 28.6 µM (inactive). For the same molecule, the GI50 [31] was 16.9 µM (inactive), the GI50 [32] was 10.2 µM (inactive) and the GI50 [33] was 7.55 µM (inactive). The GI50 [34] was 32.1 µM, the GI50 [35] was 21.3 µM (inactive) and the GI50 [36] was 7.85 µM (inactive). For the same molecule, the GI50 [37] was 36.6 µM (inactive), the GI50 [38] was 16.5 µM (inactive) and the GI50 [39] was 19 µM (inactive). The GI50 [40] was 29.8 µM (inactive), the GI50 [41] was 11 µM (inactive) and the GI50 [42] was 14.1 µM (inactive). The GI50 [43] was 22.5 µM (inactive), the GI50 [44] was 37.7 µM (inactive) and the GI50 [45] was 14.4 µM (inactive). For the same molecule, the GI50 [46] was 17 µM (inactive), the GI50 [47] was 8.97 µM (inactive) and the GI50 [48] was 7.13 µM (inactive). The GI50 [49] was 27.8 µM (inactive), the GI50 [50] was 26 µM (inactive) and the GI50 [51] was 27.4 µM (inactive). The GI50 [52] was 4.9 µM (inactive), the GI50 [53] was 19.6 µM (inactive) and the GI50 [54] was 26.1 µM (inactive). For the same molecule, the GI50 [55] was 26.2 µM (inactive), the GI50 [56] was 13.1 µM (inactive) and the GI50 [57] was 6.92 µM (inactive). For the same molecule, the GI50 [58] was 23.7 µM (inactive) and the GI50 [59] was 15 µM (inactive).

With `[N-]=[N+]=Nc1ccccc1C(=O)N1C(=O)c2ccccc2C(=O)N(C(=O)c2ccccc2N=[N+]=[N-])c2ccccc21` the GI50 [1] was > 100 µM (inactive), the GI50 [2] was 19.8 µM (inactive) and the GI50 [3] was 47.2 µM (inactive). For the same molecule, the GI50 [4] was > 100 µM (inactive), the GI50 [5] was 46.9 µM (inactive) and the GI50 [6] was > 10 µM (inactive). The GI50 [7] was 11.1 µM (inactive), the GI50 [8] was 38.8 µM (inactive) and the GI50 [9] was 23.1 µM (inactive). For the same molecule, the GI50 [10] was 60.4 µM (inactive), the GI50 [11] was 36.8 µM (inactive) and the GI50 [12] was > 100 µM (inactive). The GI50 [13] was 67.5 µM (inactive), the GI50 [14] was > 100 µM (inactive) and the GI50 [15] was 52.8 µM (inactive). The GI50 [16] was 40 µM (inactive), the GI50 [17] was > 100 µM (inactive) and the GI50 [18] was 82.8 µM (inactive). The GI50 [19] was 98.6 µM (inactive), the GI50 [20] was 59 µM (inactive) and the GI50 [21] was 43.7 µM (inactive). The GI50 [22] was 35 µM (inactive), the GI50 [23] was 13.9 µM (inactive) and the GI50 [24] was 71 µM (inactive). For the same molecule, the GI50 [25] was 52.2 µM (inactive), the GI50 [26] was 41.9 µM (inactive) and the GI50 [27] was 43.5 µM (inactive). For the same molecule, the GI50 [28] was > 100 µM (inactive), the GI50 [29] was 34.1 µM (inactive) and the GI50 [30] was 55.2 µM (inactive). For the same molecule, the GI50 [31] was 37.7 µM (inactive), the GI50 [32] was 97.3 µM (inactive) and the GI50 [33] was 21.4 µM (inactive). The GI50 [34] was 54.8 µM, the GI50 [35] was 27.4 µM (inactive) and the GI50 [36] was 30.3 µM (inactive). The GI50 [37] was > 100 µM (inactive), the GI50 [38] was 59.3 µM (inactive) and the GI50 [39] was 21.4 µM (inactive). The GI50 [40] was 21.6 µM (inactive), the GI50 [41] was 34.4 µM (inactive) and the GI50 [42] was 37.9 µM (inactive). The GI50 [43] was 31.2 µM (inactive), the GI50 [44] was 42.2 µM (inactive) and the GI50 [45] was > 100 µM (inactive). For the same molecule, the GI50 [46] was 57.8 µM (inactive), the GI50 [47] was 82.4 µM (inactive) and the GI50 [48] was 23.1 µM (inactive). For the same molecule, the GI50 [49] was > 100 µM (inactive), the GI50 [50] was 40.8 µM (inactive) and the GI50 [51] was 45.1 µM (inactive). For the same molecule, the GI50 [52] was 30.5 µM (inactive), the GI50 [53] was > 100 µM (inactive) and the GI50 [54] was 32.1 µM (inactive). For the same molecule, the GI50 [55] was 35.6 µM (inactive), the GI50 [56] was 86.5 µM (inactive) and the GI50 [57] was 37.1 µM (inactive). The GI50 [58] was 28.4 µM (inactive) and the GI50 [59] was 66.7 µM (inactive).
